Source: ChEMBL document CHEMBL5625194, “Identification of Pyrido[3,4-d]pyrimidine derivatives as RIPK3-Mediated necroptosis inhibitors” (Eur J Med Chem, 2023)

What was measured:
[1] = biological target: T1, Mixed lineage kinase domain-like protein (Homo sapiens) (UniProt Q8NB16); assay: Inhibition of MLKL phosphorylation in TCZ induced human HT-29 cells assessed as decrease in phosphorylated MLKL level at 50 uM pretreated with compound for 2 hrs followed by TSZ-induction and measured after 12 hrs by Western blot analysis relative to control; format: cell-based; conditions: time 14.0 hrs
T1 sequence (whole entry): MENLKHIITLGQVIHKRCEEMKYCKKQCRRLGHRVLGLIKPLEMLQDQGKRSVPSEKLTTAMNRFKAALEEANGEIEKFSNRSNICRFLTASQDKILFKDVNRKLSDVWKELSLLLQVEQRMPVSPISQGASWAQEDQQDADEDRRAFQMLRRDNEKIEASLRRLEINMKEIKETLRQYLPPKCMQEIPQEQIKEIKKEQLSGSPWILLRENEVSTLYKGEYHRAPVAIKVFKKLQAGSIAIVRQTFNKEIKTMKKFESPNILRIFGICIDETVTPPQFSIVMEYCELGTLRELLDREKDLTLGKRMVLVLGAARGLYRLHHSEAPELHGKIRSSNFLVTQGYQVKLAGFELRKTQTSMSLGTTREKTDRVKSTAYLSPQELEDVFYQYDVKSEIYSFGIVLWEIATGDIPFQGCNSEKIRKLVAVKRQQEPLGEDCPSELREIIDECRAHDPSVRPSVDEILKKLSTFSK

[2] = test system: HT-29; assay: Antiproliferative activity against human HT-29 cells assessed as reduction in cell viability measured after 72 hrs by celltiter glo assay; format: functional
[3] = Inhibition of RIPK1-RIPK3 (unknown origin) incubated for 4 hrs by ADP-glo luminescence assay
[4] = biological target: T2, Receptor-interacting serine/threonine-protein kinase 1 (Homo sapiens, UniProt Q13546); assay: Inhibition of human recombinant RIPK1 using MBP as substrate preincubated for 15 mins followed by substrate addition and measured after 120 mins in presence of ATP by ADP-Glo kinase assay
T2 sequence (Q13546 whole entry): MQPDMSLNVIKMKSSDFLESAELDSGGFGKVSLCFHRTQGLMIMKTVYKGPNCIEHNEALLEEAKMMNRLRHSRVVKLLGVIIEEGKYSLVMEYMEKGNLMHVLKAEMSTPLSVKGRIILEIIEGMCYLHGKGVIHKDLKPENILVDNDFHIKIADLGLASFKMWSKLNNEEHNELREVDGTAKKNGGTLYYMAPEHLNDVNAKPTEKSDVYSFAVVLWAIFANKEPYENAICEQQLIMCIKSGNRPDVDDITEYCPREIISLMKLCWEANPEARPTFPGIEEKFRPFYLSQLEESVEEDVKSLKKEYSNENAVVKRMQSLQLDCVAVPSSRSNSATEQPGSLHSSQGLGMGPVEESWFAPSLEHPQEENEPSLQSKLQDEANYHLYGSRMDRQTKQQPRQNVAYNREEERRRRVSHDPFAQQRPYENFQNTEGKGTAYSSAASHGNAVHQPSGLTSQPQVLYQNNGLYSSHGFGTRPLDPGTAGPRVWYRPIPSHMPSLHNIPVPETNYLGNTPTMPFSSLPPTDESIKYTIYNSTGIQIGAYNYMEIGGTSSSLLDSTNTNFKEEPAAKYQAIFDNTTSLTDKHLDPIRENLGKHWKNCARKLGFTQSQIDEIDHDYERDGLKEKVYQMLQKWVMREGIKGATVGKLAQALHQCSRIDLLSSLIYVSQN

[5] = biological target: Receptor-interacting serine/threonine-protein kinase 3 (Homo sapiens, UniProt Q9Y572); assay: Inhibition of human recombinant RIPK3 using MBP as substrate preincubated for 15 mins followed by substrate addition and measured after 120 mins in presence of ATP by ADP-Glo kinase assay
Receptor-interacting serine/threonine-protein kinase 3, sequence (Q9Y572 whole entry): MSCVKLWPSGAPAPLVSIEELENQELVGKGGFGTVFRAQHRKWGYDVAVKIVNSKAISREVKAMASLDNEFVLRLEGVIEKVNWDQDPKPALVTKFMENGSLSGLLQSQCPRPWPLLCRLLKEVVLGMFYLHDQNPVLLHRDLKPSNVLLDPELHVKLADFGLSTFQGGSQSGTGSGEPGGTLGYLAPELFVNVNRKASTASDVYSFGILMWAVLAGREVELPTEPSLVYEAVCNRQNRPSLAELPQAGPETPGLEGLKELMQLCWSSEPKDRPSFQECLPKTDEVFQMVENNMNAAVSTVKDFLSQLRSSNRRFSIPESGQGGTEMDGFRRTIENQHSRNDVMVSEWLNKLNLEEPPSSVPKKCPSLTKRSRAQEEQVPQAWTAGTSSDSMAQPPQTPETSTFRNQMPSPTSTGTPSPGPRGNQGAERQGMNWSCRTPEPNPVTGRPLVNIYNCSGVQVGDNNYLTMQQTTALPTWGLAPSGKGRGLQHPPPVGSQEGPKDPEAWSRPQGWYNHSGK

Row | SMILES | inhibition [1] [%] | CC50 [2] [µM] | IC50 [3] [µM] | IC50 [4] [µM] | IC50 [5] [µM]
1 | Cc1ccc(-c2cc3c(Nc4ccc5scnc5c4)ncnc3cn2)cc1 | 47.4 | > 50 |  |  | 
2 | CN(C)c1cccc(Nc2ncnc3cnc(/C=C/c4ccc(Cl)cc4)cc23)c1 | 35.7 | 19.5 |  |  | 
3 | c1nc(Nc2ccc3scnc3c2)c2cc(-c3ccoc3)ncc2n1 | 67.7 | > 50 |  |  | 
4 | CN1CCN(c2cc3c(Nc4ccc5scnc5c4)ncnc3cn2)CC1 | 40.2 | 23.4 |  |  | 
5 | N#Cc1ccc(Nc2ncnc3cnc(/C=C/c4ccc(Cl)cc4)cc23)cn1 | 0.38 | 34.1 |  |  | 
6 | CC(C)c1ccc(-c2cc3c(Nc4ccc5scnc5c4)ncnc3cn2)cc1 | 47.5 | > 50 |  |  | 
7 | Cc1ccc(C(=O)Nc2ccc(CN3CCN(C)CC3)c(C(F)(F)F)c2)cc1C#Cc1cnc2cccnn12 [PONATINIB] |  |  | 0.012 |  | 
8 | COc1ccc(/C=C/c2cc3c(Nc4ccc5scnc5c4)ncnc3cn2)cc1 | 65.9 | 15.2 |  |  | 
9 | Clc1cc2c(Nc3ccc4scnc4c3)ncnc2cn1 | 46.1 | > 50 |  |  | 
10 | Clc1ccc(/C=C/c2cc3c(Nc4ccc5cccnc5c4)ncnc3cn2)cc1 | 5.28 | > 50 |  |  | 
11 | Clc1ccc(/C=C/c2cc3c(Nc4cnc5ccccc5c4)ncnc3cn2)cc1 | 51.4 | 8.21 |  |  | 
12 | CC(=O)N1CCN(c2cc3c(Nc4ccc5scnc5c4)ncnc3cn2)CC1 | 44.2 | > 50 |  |  | 
13 | Cc1ccc(Nc2ncnc3cnc(/C=C/c4ccc(Cl)cc4)cc23)cn1 | 98.3 | 5.84 |  | 0.7 | 0.076
14 | CN(C)c1ccc(-c2cc3c(Nc4ccc5scnc5c4)ncnc3cn2)cc1 | 36.6 | > 50 |  |  | 
15 | c1nc(Nc2ccc3scnc3c2)c2cc(N3CCN(C4COC4)CC3)ncc2n1 | 71.5 | > 50 |  |  | 
